Among the data in ChEMBL document CHEMBL1150497, “Imidazol-1-ylalkanoate esters and their corresponding acids. A novel series of extrinsic 1H NMR probes for intracellular pH” (Bioorg Med Chem Lett, 1992) are pKa values, retold here.

This data set can be described thus: pKa value by 1H NMR spectroscopy. It counts as physicochemical.
The molecule `O=C(O)Cn1ccnc1` registered a pKa of 7.23.
Under `CCOC(=O)CC(C(=O)O)n1ccnc1` (centres undefined) stands 6.86.
As for `CCOC(=O)C(C(=O)OCC)n1ccnc1`, the pKa turned out to be 5.02.
Turning to `CCOC(=O)CC(CC(=O)OCC)n1ccnc1`, the pKa was found to be 6.45.
Under `CCOC(=O)CC(C(=O)OCC)n1ccnc1` (centres undefined) stands 6.02; under `COC(=O)Cn1ccnc1`, 7.1.
Molecule `O=C(O)CC(CC(=O)O)n1ccnc1` displayed a pKa of 7.37.
`O=C(O)CC(C(=O)O)n1ccnc1` (centres undefined) came in with a pKa of 7.32.
Under `c1c[nH]cn1` [IMIDAZOLE] stands 7.14.

The term pKa denotes the pH at which an ionisable group is half protonated. A lower pKa goes with a group that gives up its proton readily.
